Results as given in paper PMC11999280, “Design and screening of novel endosomal escape compounds that enhance functional delivery of oligonucleotides in vitro” (Molecular Therapy. Nucleic Acids, 2025).

Legend:
Format in all cases: cell-based
[1] = test system: PPIB mRNA in primary human hepatocytes; assay: PPIB siRNA knockdown, qPCR; details: EEE32 at 2 μM with GalNAc-siPPIB
Description: Studies of siRNA knockdown therapeutics were performed in primary human hepatocytes using EEE32-mediated enhancement. We aimed to target peptidylpropyl isomerase B (PPIB) mRNA by using siRNA (siPPIB) either alone or together with the EEE32 and comparing them with GalNAc-conjugated siRNA (GalNAc-siPPIB), which is considered a potent human liver uptake enhancer.[30] […] However, the use of EEE32 at a 2-μM concentration enhanced GalNAc-siPPIB activity, improving the knockdown capacity by approximately 10-fold (Figure 5B, top). Additionally, no significant differences indicating compromised cell viability were observed when measuring systematic decreases in RNA yield from both groups (Figure 5B, bottom).
Human primary hepatocytes obtained from a commercial supplier (QNT lot, BioIVT) were cultured in rat tail collagen I-coated 96-well plates (Corning, catalog no. 354407) using William’s E Medium (A1217601,Thermo Fisher) supplemented with thawing and plating supplements (Thermo Fisher, catalog no. CM3000) (day 0). […]

[2] = test system: HeLa_Luc705 cells (pLuc/705 splice-switching reporter); assay: Functional 705-SSO delivery, luciferase splice-switching assay; details: for Luciferase expression compared to reference: mean from >3 independent experiments
How it was run: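 Cells seeded at 10,000/well were pre-incubated 24 h with 1–2 μM 2′-O-methyl phosphorothioate 705-SSO, then exposed to endosomal escape enhancer at the stated concentrations. After 24 h, cells were lysed in 0.1% Triton X-100 and firefly luciferase luminescence was read as the splice-correction signal. LF2000 lipofection with 100–200 nM SSO served as transfection control.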

[3] = test system: cell lines carrying an mCherry-GAL9-reporter; assay: GAL9 puncta formation upon EEE dose escalation (images); details: dose escalation 0.31 to 10 μM
Description: We further studied endosomal leakage by quantifying GAL9 recruitment upon EEE dose escalation, from 0.31 to 10 μM. For this purpose, we used cell lines carrying an mCherry-GAL9-reporter, where endosomal rupture could be quantified by measuring GAL9 clustering as a puncta event representative of endosomal remodeling.
Experiments assessing GAL9 localization as an indicator for endosomal remodeling were performed as previously described[15] using 8× stablemCherry-GAL9 expressing cell lines, SHSY5Y, U2OS, 16HBE, NCI-H358, HuH7, HepG2, HEK293, and HeLa. For mCherry-GAL9 recruitment, 3,000 or 6,500 cells/well (depending upon cell line) were seeded into 384-well CellCarrier Ultra plates 24 h prior to treatment (PerkinElmer, catalog no. 6007558). An Echo 655T acoustic dispenser (Labcyte) was used for EEE dose-response preparation by transferring to the cell plate. At assay endpoints, cells were PBS washed, 4% paraformaldehyde fixed at room temperature […] (VWR, catalog no. 9713.1000), and nuclei stained with PBS +1 μg/mL Hoechst 33342 (Thermo Fisher Scientific, catalog no. H21492).
Imaging was performed using a spinning-disk confocal microscope (Yokogawa: CV8000) with a ×20w objective (numerical aperture 1.0). Cells and mCherry-GAL9 structure identification and quantification were done using Columbus image-analysis software (PerkinElmer version 2.9.0). […]

[4] = test system: mCherry-GAL9 expressing SHSY5Y cells; assay: GAL9 recruitment assay, SHSY5Y; details: calculated mean from >3 independent exp.
How it was run: (§1)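 Stable mCherry-GAL9 lines; 24 h post-seeding, compound dosed as dose-response. Endpoint: PBS wash, 4% PFA fix (RT), Hoechst 33342 1 μg/mL. Confocal imaging ×20w, GAL9 puncta quantified. N = 3, duplicate wells.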

[5] = test system: mCherry-GAL9 expressing HEK293 cells; assay: GAL9 recruitment assay, HEK293; details: calculated mean from >3 independent exp.
How it was run: as §1

[6] = test system: mCherry-GAL9 expressing NCI-H358 cells; assay: GAL9 recruitment assay, NCI-H358; details: calculated mean from >3 independent exp.
How it was run: as §1

[7] = test system: mCherry-GAL9 expressing U2OS cells; assay: GAL9 recruitment assay, U2OS; details: calculated mean from >3 independent exp.
How it was run: as §1

[8] = test system: mCherry-GAL9 expressing HuH7 cells; assay: GAL9 recruitment assay, HuH7; details: calculated mean from >3 independent exp.
How it was run: as §1

[9] = test system: mCherry-GAL9 expressing HeLa cells; assay: GAL9 recruitment assay, HeLa; details: calculated mean from >3 independent exp.
How it was run: as §1

[10] = test system: mCherry-GAL9 expressing 16HBE cells; assay: GAL9 recruitment assay, 16HBE; details: calculated mean from >3 independent exp.
How it was run: as §1

[11] = test system: mCherry-GAL9 expressing HepG2 cells; assay: GAL9 recruitment assay, HepG2; details: calculated mean from >3 independent exp.
How it was run: as §1

[12] = HeLa-Luc705 + 1 µM SSO, EEE 0.5 µM
[13] = HeLa-Luc705 + 1 µM SSO, EEE 2 µM
[14] = HeLa-Luc705 + 1 µM SSO, EEE 4 µM
[15] = HeLa-Luc705 + 1 µM SSO, EEE 5 µM

COc1nn(C2CCNC(C)(C)C2)cc1Nc1ncc(F)c(-n2ccc3c(C#N)cccc32)n1 (centres unmarked) [EEE32]
Improvement of GalNAc-siPPIB knockdown capacity [1]: approximately 10 fold
Luciferase expression compared to reference [2, 12]: 3.743
Luciferase expression compared to reference [2, 13]: 115.294
Luciferase expression compared to reference [2, 14]: 111.401
Luciferase expression compared to reference [2, 15]: 66.337
Splice-switching with 24-h SSO pre-incubation relative to SSO co-treatment ([2]; dose response, luciferase readout at time points after EEE addition): around 17 times
Splice-switching enhancement ([2]; using 2–2.5 μM EEE): above 100 fold

COc1nn(C2CCN(C)CC2)cc1Nc1ncc(F)c(-n2ccc3c(C#N)cccc32)n1 [EEE8]
EEE concentration with clear GAL9 puncta formation [3]: ≥ 1.25 µM
Gal9 response compared to reference ([4]; EEE 0.31 µM): 0.014
Gal9 response compared to reference ([4]; EEE 0.62 µM): 0.082
Gal9 response compared to reference ([4]; EEE 1.25 µM): 0.694
Gal9 response compared to reference ([4]; EEE 2.5 µM): 0.629
Gal9 response compared to reference ([4]; EEE 5 µM): 0.567
Gal9 response compared to reference ([4]; EEE 10 µM): 0.278
Gal9 response compared to reference ([5]; EEE 0.31 µM): 0.027
Gal9 response compared to reference ([5]; EEE 0.62 µM): 0.052
Gal9 response compared to reference ([5]; EEE 1.25 µM): 0.309
Gal9 response compared to reference ([5]; EEE 2.5 µM): 0.657
Gal9 response compared to reference ([5]; EEE 5 µM): 0.605
Gal9 response compared to reference ([5]; EEE 10 µM): 0.329
Gal9 response compared to reference ([6]; EEE 0.31 µM): 0.017
Gal9 response compared to reference ([6]; EEE 0.62 µM): 0.032
Gal9 response compared to reference ([6]; EEE 1.25 µM): 0.148
Gal9 response compared to reference ([6]; EEE 2.5 µM): 0.553
Gal9 response compared to reference ([6]; EEE 5 µM): 0.623
Gal9 response compared to reference ([6]; EEE 10 µM): 0.457
Gal9 response compared to reference ([7]; EEE 0.31 µM): 0.012
Gal9 response compared to reference ([7]; EEE 0.62 µM): 0.013
Gal9 response compared to reference ([7]; EEE 1.25 µM): 0.029
Gal9 response compared to reference ([7]; EEE 2.5 µM): 0.234
Gal9 response compared to reference ([7]; EEE 5 µM): 0.490
Gal9 response compared to reference ([7]; EEE 10 µM): 0.563
Gal9 response compared to reference ([8]; EEE 0.31 µM): 0.010
Gal9 response compared to reference ([8]; EEE 0.62 µM): 0.016
Gal9 response compared to reference ([8]; EEE 1.25 µM): 0.078
Gal9 response compared to reference ([8]; EEE 2.5 µM): 0.313
Gal9 response compared to reference ([8]; EEE 5 µM): 0.228
Gal9 response compared to reference ([8]; EEE 10 µM): 0.160
Gal9 response compared to reference ([9]; EEE 0.31 µM): 0.004
Gal9 response compared to reference ([9]; EEE 0.62 µM): 0.009
Gal9 response compared to reference ([9]; EEE 1.25 µM): 0.105
Gal9 response compared to reference ([9]; EEE 2.5 µM): 0.319
Gal9 response compared to reference ([9]; EEE 5 µM): 0.459
Gal9 response compared to reference ([9]; EEE 10 µM): 0.198
Gal9 response compared to reference ([10]; EEE 0.31 µM): 0.011
Gal9 response compared to reference ([10]; EEE 0.62 µM): 0.035
Gal9 response compared to reference ([10]; EEE 1.25 µM): 0.180
Gal9 response compared to reference ([10]; EEE 2.5 µM): 0.503
Gal9 response compared to reference ([10]; EEE 5 µM): 0.638
Gal9 response compared to reference ([10]; EEE 10 µM): 0.492
Gal9 response compared to reference ([11]; EEE 0.31 µM): 0.007
Gal9 response compared to reference ([11]; EEE 0.62 µM): 0.008
Gal9 response compared to reference ([11]; EEE 1.25 µM): 0.011
Gal9 response compared to reference ([11]; EEE 2.5 µM): 0.075
Gal9 response compared to reference ([11]; EEE 5 µM): 0.511
Gal9 response compared to reference ([11]; EEE 10 µM): 0.529
Luciferase expression compared to reference [2, 12]: 0.717
Luciferase expression compared to reference [2, 13]: 2.253
Luciferase expression compared to reference [2, 14]: 11.227
Luciferase expression compared to reference [2, 15]: 31.147
Luciferase expression compared to reference ([2]; HeLa-Luc705 + 2 µM SSO, EEE 5 µM): 52.876
EEE dose required to show splice-switching above 10-fold normalized to SSO only ([2]; dose-response, 1 μM SSO): 4.5 μM
